This note sets out measurements from patent publication US9884865B2, “Azaspiro[4.5] decane derivatives and use thereof” (Purdue Pharma L.P., priority 2013, dated 2018).

T1 sequence (Q15858 other isoform, or with tags, fused parts or gaps): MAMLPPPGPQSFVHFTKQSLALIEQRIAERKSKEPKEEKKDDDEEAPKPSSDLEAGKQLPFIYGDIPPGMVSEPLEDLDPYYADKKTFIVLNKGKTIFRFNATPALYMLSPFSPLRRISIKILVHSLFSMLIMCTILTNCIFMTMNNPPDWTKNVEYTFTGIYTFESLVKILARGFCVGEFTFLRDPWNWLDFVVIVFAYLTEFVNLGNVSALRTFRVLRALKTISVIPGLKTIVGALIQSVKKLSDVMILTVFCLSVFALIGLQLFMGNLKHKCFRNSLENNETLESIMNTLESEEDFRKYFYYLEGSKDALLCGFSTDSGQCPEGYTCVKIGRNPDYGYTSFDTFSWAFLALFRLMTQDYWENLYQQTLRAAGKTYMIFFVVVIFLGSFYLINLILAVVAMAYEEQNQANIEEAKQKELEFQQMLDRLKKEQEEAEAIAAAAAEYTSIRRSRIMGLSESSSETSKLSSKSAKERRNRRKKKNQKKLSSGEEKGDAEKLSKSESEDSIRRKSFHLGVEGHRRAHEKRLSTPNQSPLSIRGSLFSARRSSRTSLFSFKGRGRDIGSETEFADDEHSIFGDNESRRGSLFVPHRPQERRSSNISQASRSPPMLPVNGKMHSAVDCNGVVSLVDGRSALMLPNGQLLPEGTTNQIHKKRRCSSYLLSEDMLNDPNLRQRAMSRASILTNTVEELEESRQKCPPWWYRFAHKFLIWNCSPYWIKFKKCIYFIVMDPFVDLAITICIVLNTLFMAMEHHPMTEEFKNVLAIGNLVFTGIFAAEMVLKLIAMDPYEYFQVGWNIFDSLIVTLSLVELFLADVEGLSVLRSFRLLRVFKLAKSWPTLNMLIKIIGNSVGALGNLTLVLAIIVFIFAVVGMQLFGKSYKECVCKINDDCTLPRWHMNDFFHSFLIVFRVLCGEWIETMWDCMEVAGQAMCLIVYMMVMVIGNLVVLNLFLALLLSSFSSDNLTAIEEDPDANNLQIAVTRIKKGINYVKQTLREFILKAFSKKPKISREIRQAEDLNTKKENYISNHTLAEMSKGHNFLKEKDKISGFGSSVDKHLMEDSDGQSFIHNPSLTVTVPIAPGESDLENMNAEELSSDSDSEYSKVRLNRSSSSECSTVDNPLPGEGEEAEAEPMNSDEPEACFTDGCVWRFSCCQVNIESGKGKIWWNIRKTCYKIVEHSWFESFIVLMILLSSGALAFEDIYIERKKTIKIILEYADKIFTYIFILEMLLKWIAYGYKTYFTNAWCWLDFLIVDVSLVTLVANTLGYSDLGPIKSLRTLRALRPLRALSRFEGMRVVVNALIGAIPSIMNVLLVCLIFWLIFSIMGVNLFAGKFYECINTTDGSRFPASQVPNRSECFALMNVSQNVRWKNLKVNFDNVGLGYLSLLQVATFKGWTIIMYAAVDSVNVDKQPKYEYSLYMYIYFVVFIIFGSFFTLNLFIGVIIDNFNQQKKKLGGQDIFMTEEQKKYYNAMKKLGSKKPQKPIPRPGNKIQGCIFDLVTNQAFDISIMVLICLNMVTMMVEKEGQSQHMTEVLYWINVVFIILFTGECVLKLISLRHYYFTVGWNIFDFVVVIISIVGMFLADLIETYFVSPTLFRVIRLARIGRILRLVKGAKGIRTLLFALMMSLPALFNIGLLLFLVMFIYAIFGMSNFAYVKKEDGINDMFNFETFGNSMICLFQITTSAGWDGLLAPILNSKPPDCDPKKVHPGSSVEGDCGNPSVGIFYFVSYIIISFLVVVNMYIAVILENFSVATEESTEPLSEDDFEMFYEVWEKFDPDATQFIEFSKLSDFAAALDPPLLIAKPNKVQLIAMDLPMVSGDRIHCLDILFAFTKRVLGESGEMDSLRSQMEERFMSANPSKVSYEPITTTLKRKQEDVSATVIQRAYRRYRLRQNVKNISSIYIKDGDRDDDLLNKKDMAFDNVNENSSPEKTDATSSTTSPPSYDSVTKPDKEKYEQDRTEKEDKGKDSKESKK

The first experiment has as its target T1, human Nav1.7 (Homo sapiens (Human), UniProt Q15858). Kind of experiment: FLIPR sodium dye assay (CoroNa Green AM Na+ dye, primary fluorescence assay). Conditions: recombinant human Nav1.7 in HEK293. Format: cell-based.
In general, IC50 refers to the concentration at which inhibition is half-maximal. For `NC(=O)c1cc(N[C@H]2CCNC2=O)nc(N2CCC3(CC2)OCc2ccccc23)n1` [Compound 8, (S)-6-((2-oxopyrrolidin-3-yl)amino)-2-(3H-spiro[isobenzofuran-1,4′-piperidin]-1′-yl)pyrimidine-4-carboxamide], the IC50 was determined as 3.92 ± 0.466 µM. The same measure, in the same setting: the same measure for `NC(=O)c1cc(N[C@H]2CCNC2=O)nc(N2CCC3(C=Cc4ccccc43)CC2)n1` [Compound 9, (S)-6-((2-oxopyrrolidin-3-yl)amino)-2-(spiro[indene-1,4′-piperidin]-1′-yl)pyrimidine-4-carboxamide]: 1.3 ± 0.124 µM; for `NC(=O)c1cc(N[C@H]2CCNC2=O)nc(N2CCC3(CC2)OC(=O)c2ccccc23)n1` [Compound 10, (S)-2-(3-oxo-3H-spiro [isobenzofuran-1,4′-piperidin]-1′-yl)-6-((2-oxopyrrolidin-3-yl)amino)pyrimidine-4-carboxamide]: 3.86 ± 0.39 µM. For `NC(=O)c1cc(N[C@H]2CCNC2=O)nc(N2CCC3(CC2)C(=O)NCN3c2ccccc2)n1` [Compound 11, (S)-2-(4-oxo-1-phenyl-1,3,8-triazaspiro[4.5]decan-8-yl)-6-((2-oxopyrrolidin-3-yl)amino)pyrimidine-4-carboxamide], the 50% inhibitory concentration (IC50) is more than 20 µM.

For a further experiment, the target named is T1, human Nav1.7. Briefly: FLIPR membrane potential dye assay (alternative fluorescence assay).
Details: not given
Format: cell-based.
For `O=C1NC(=O)C2(CCN(c3ccc(Oc4ccc(F)cc4)cc3)CC2)N1` [Compound 12, 8-(4-(4-Fluorophenoxy)phenyl)-1,3,8-triazaspiro[4.5]decane-2,4-dione], the IC50 was more than 20000 nM. Compound `O=C1NC(=O)C2(CCN(c3ccc(Oc4cccc(F)c4)cc3)CC2)N1` [Compound 13, 8-(4-(3-Fluorophenoxy)phenyl)-1,3,8-triazaspiro[4.5]decane-2,4-dione] showed an IC50 of 1540 ± 223 nM. `O=C1NC(=O)C2(CCN(c3ccc(Oc4cccc(C(F)(F)F)c4)cc3)CC2)N1` [Compound 14, 8-(4-(3-(Trifluoromethyl)phenoxy)phenyl)-1,3,8-triazaspiro[4.5]decane-2,4-dione]: the half-inhibitory concentration (IC50) worked out at 1270 ± 380 nM. `O=C1NC(=O)C2(CCN(c3cc(-c4ccc(OC(F)(F)F)cc4)ccn3)CC2)N1` [Compound 15, 8-(4-(4-(trifluoromethoxy)phenyl)pyridin-2-yl)-1,3,8-triazaspiro[4.5]decane-2,4-dione]: the IC50 was determined as 872 ± 117 nM. Take `O=C1NC(=O)C2(CCN(c3ccc(Oc4ccc(F)cc4)cn3)CC2)N1` [Compound 16, 8-(5-(4-Fluorophenoxy)pyridin-2-yl)-1,3,8-triazaspiro[4.5]decane-2,4-dione]: the IC50 turned out to be 4480 ± 1040 nM. The compound `O=C1NC(=O)C2(CCN(c3ccc(Oc4ccc(C(F)(F)F)cc4)cn3)CC2)N1` [Compound 17, 8-(5-(4-(trifluoromethyl)phenoxy)pyridin-2-yl)-1,3,8-triazaspiro[4.5]decane-2,4-dione] came in with an IC50 of 1730 ± 649 nM. `O=C1NC(=O)C2(CCN(c3ccc(Oc4cccc(C(F)(F)F)c4)cn3)CC2)N1` [Compound 18, 8-(5-(3-(trifluoromethyl)phenoxy)-pyridin-2-yl)-1,3,8-triazaspiro[4.5]decane-2,4-dione]: the half-maximal inhibitory concentration (IC50) was 1440 ± 492 nM. The compound `O=C1NC(=O)C2(CCN(c3ccc(Oc4ccc(C(F)(F)F)cc4)cc3)CC2)N1` [Compound 19, 8-(4-(4-(trifluoromethyl)phenoxy)phenyl)-1,3,8-triazaspiro[4.5]decane-2,4-dione] returned an IC50 of more than 20000 nM. Consider `O=C1NC(=O)C2(CCN(c3ncccc3Oc3ccc(F)cc3)CC2)N1` [Compound 20, 8-(3-(4-Fluorophenoxy)pyridin-2-yl)-1,3,8-triazaspiro[4.5]decane-2,4-dione], for which the half-inhibitory concentration (IC50) is more than 20000 nM.

On to `O=C1NC(=O)C2(CCN(c3cc(-c4cccc(OC(F)(F)F)c4)ccn3)CC2)N1` [Compound 21, 8-(4-(3-(Trifluoromethoxy)phenyl)pyridin-2-yl)-1,3,8-triazaspiro[4.5]decane-2,4-dione], for which the midpoint of inhibition, the IC50, lay at 1980 ± 309 nM.
